Source: US12497663B2, “Method of monitoring treatment” (LDN Pharma Limited, priority 2019, dated 2025)

System: CD3+ cells
Experiment: Gene expression in CD3+ cells from CD14-ve PBMCs cultured with naltrexone (Illumina biochips)
Type: cell-based, human
Settings: 4 h
Procedure: The RNA was then extracted from the cells using Trizol then isopropanol. The expression of the genes was measured using Illumina platform with biochips surveying the total human genome. […] The ratio of treated:untreated was calculated and the 25% change from untreated considered relevant.

[1] = ratio treated:untreated, 10 nM naltrexone

O=C1CC[C@@]2(O)[C@H]3Cc4ccc(O)c5c4[C@@]2(CCN3CC2CC2)[C@H]1O5 [NTX, morphinan-6-one,17-(cyclopropylmethyl)-4,5-epoxy-3,14-dihydroxy-(5a)]
ALDH4A1 N/U-score (10 uM naltrexone): o (no change) | ASAP1 N/U-score (10 uM naltrexone): o (no change) | BCLAF1 N/U-score (10 uM naltrexone): o (no change) | BIRC3 N/U-score (10 uM naltrexone): o (no change) | CASZ1 N/U-score (10 uM naltrexone): o (no change) | CDC42SE2 N/U-score (10 uM naltrexone): o (no change) | CDKN2AIP N/U-score (10 uM naltrexone): o (no change) | DRAP1 N/U-score (10 uM naltrexone): D (reduction) | DYNLL2 N/U-score (10 uM naltrexone): o (no change) | EIF2S3 N/U-score (10 uM naltrexone): o (no change) | EIF3E N/U-score (10 uM naltrexone): o (no change) | EIF3M N/U-score (10 uM naltrexone): o (no change) | EIF4B N/U-score (10 uM naltrexone): o (no change) | EZR N/U-score (10 uM naltrexone): o (no change) | FRG1 N/U-score (10 uM naltrexone): o (no change) | H3F3A N/U-score (10 uM naltrexone): o (no change) | HIST1H4C N/U-score (10 uM naltrexone): o (no change) | HPCAL1 N/U-score (10 uM naltrexone): o (no change) | ITGB2 N/U-score (10 uM naltrexone): o (no change) | KCTD6 N/U-score (10 uM naltrexone): o (no change) | LSM5 N/U-score (10 uM naltrexone): o (no change) | MAP4K1 N/U-score (10 uM naltrexone): D (reduction) | MORF4L1 N/U-score (10 uM naltrexone): o (no change) | MTF1 N/U-score (10 uM naltrexone): o (no change) | MYLK N/U-score (10 uM naltrexone): o (no change) | NUCB1 N/U-score (10 uM naltrexone): o (no change) | OR10A6 N/U-score (10 uM naltrexone): o (no change) | PAH N/U-score (10 uM naltrexone): o (no change) | PDCD4 N/U-score (10 uM naltrexone): o (no change) | PECI N/U-score (10 uM naltrexone): o (no change) | PRPF8 N/U-score (10 uM naltrexone): o (no change) | PSME2 N/U-score (10 uM naltrexone): o (no change) | PVRL2 N/U-score (10 uM naltrexone): o (no change) | RASAL3 N/U-score (10 uM naltrexone): D (reduction) | S100A6 N/U-score (10 uM naltrexone): D (reduction) | SH3BGRL3 N/U-score (10 uM naltrexone): o (no change) | SPOCK2 N/U-score (10 uM naltrexone): o (no change) | WDR75 N/U-score (10 uM naltrexone): o (no change) | YWHAZ N/U-score (10 uM naltrexone): D (reduction) | ACTB LDN/UN [1]: 1.560 | ALDH4A1 LDN/UN [1]: 1.691 | ASAP1 LDN/UN [1]: 0.701 | BCLAF1 LDN/UN [1]: 0.653 | BIRC3 LDN/UN [1]: 0.703 | CASZ1 LDN/UN [1]: 1.775 | CDC42SE2 LDN/UN [1]: 0.590 | CDKN2AIP LDN/UN [1]: 0.702 | DRAP1 LDN/UN [1]: 1.253 | DYNLL2 LDN/UN [1]: 0.702 | EIF2S3 LDN/UN [1]: 0.702 | EIF3E LDN/UN [1]: 0.647 | EIF3M LDN/UN [1]: 0.613 | EIF4B LDN/UN [1]: 1.576 | EZR LDN/UN [1]: 1.563 | FRG1 LDN/UN [1]: 0.614 | H3F3A LDN/UN [1]: 0.632 | HIST1H4C LDN/UN [1]: 0.667 | HPCAL1 LDN/UN [1]: 1.515 | ITGB2 LDN/UN [1]: 1.528 | KCTD6 LDN/UN [1]: 0.700
